28 compounds from doi:10.1101/2021.10.07.463234v2 (biorxiv, 2021) can be followed below.

Counter-ions that a name gives are not always drawn.

One experiment has as its target SARS-CoV-2 Mac1 (Severe acute respiratory syndrome coronavirus 2, UniProt P0DTD1). The experiment can be described thus: biochemical. Conditions: 100 µM; inhibitor.
For `CCCN[C@H]1CCc2nc(N)sc2C1` [Pramipexole 2HCl Monohydrate], the “%inhibition” value was 5.796%.
In the case of `CCCN[C@H]1CCc2nc(N)sc2C1` [Pramipexole dihydrochloride], the “%inhibition” value was found to be 10.17%.
Same read-out and setting: to `CCCN[C@H]1CCc2nc(N)sc2C1` [Pramipexole] belongs 0%; to `CC(=O)Oc1cc2c(s1)CCN(C(C(=O)C1CC1)c1ccccc1F)C2` (stereo not shown) [Prasugrel Hydrochloride], 0%.
Same read-out and setting: to `CC(=O)Oc1cc2c(s1)CCN(C(C(=O)C1CC1)c1ccccc1F)C2` (stereo not shown) [Prasugrel] belongs 25.16%.

Staying with this experiment, now noted: read-out: %inhibition.
As for `Cc1ccc(C(=O)Nc2ccc(CN3CCN(C)CC3)c(C(F)(F)F)c2)cc1C#Cc1cnc2cccnn12` [Ponatinib (AP24534)], the inhibition at 100 µM was 5.09%.
`CCC/N=C1\S/C(=C\c2ccc(OC[C@H](O)CO)c(Cl)c2)C(=O)N1c1ccccc1C` [Ponesimod]: the inhibition at 100 µM was found to be 0%.
Turning to `CC[C@@H]([C@H](C)O)n1ncn(-c2ccc(N3CCN(c4ccc(OC[C@@H]5CO[C@@](Cn6cncn6)(c6ccc(F)cc6F)C5)cc4)CC3)cc2)c1=O` [Posaconazole], the inhibition at 100 µM amounted to 37.1%.
On to `C[C@]12CCC(=O)C=C1C=C[C@@H]1[C@@H]2CC[C@@]2(C)[C@H]1CC[C@@]2(O)CCC(=O)O` [Potassium Canrenoate], for which the inhibition at 100 µM was 0%.
Same read-out and setting: in the case of `CC(=O)O` [Potassium acetate] it was 11.3%; in that of `C=CN1CCCC1=O` [Povidone iodine], 0%.
Still for that read-out and setting: in the case of `C=CC(=O)N1CCC(Oc2cc3c(Nc4ccc(Cl)c(Cl)c4F)ncnc3cc2OC)CC1` [Poziotinib (HM781-36B)] it was 0%; in that of `CCCCc1nc2cc(/C=C/C(=O)NO)ccc2n1CCN(CC)CC` [Pracinostat (SB939)], 3.38%; in that of `C#CCC(Cc1cnc2nc(N)nc(N)c2n1)c1ccc(C(=O)N[C@@H](CCC(=O)O)C(=O)O)cc1` (stereo partly shown) [Pralatrexate], 13.2%.
The same measure, in the same setting: to `C[n+]1ccccc1C=NO` [Pralidoxime Iodide] belongs 22.4%; to `C[n+]1ccccc1/C=N/O` [Pralidoxime chloride], 8.15%.
Turning to `CC(C)N(CCNC(=O)CN1CCCC1=O)C(C)C` [Pramiracetam], the inhibition at 100 µM was determined as 1.25%.
For `CCCCOc1ccc(OCCCN2CCOCC2)cc1` [Pramoxine HCl], the inhibition at 100 µM was found to be 25.7%.
Turning to `O=C(Nc1cccc2c(=O)cc(-c3nnn[nH]3)oc12)c1ccc(OCCCCc2ccccc2)cc1` [Pranlukast], the inhibition at 100 µM stood at 4.22%.
Same read-out and setting: to `CC(C(=O)O)c1ccc2c(c1)Cc1cccnc1O2` (stereo not shown) [Pranoprofen] belongs 17.8%; to `CC[C@H](C)C(=O)O[C@H]1C[C@H](O)C=C2C=C[C@H](C)[C@H](CC[C@@H](O)C[C@@H](O)CC(=O)O)[C@H]21` [Pravastatin sodium], 28.2%; to `O=C(C1CCCCC1)N1CC(=O)N2CCc3ccccc3C2C1` (stereo not shown) [Praziquantel], 0%.
As to `COc1cc2nc(N3CCN(C(=O)c4ccco4)CC3)nc(N)c2cc1OC` [Prazosin HCl], the inhibition at 100 µM was 17.1%.
As for `CC(=O)OCC(=O)[C@@]1(O)CC[C@H]2[C@@H]3CCC4=CC(=O)C=C[C@]4(C)[C@H]3[C@@H](O)C[C@@]21C` [Prednisolone Acetate], the inhibition at 100 µM was 15.9%.
On to `C[C@]12C=CC(=O)C=C1CC[C@@H]1[C@@H]2[C@@H](O)C[C@@]2(C)[C@H]1CC[C@]2(O)C(=O)CO` [Prednisolone], for which the inhibition at 100 µM was determined as 31%.
Still for that read-out and setting: to `C[C@]12C=CC(=O)C=C1CC[C@@H]1[C@@H]2C(=O)C[C@@]2(C)[C@H]1CC[C@]2(O)C(=O)CO` [Prednisone] belongs 0%; to `CC(=O)[C@H]1CC[C@H]2[C@@H]3CC=C4C[C@@H](O)CC[C@]4(C)[C@H]3CC[C@]12C` [Pregnenolone], 14.7%; to `CCCNC(C)C(=O)Nc1ccccc1C` (stereo not shown) [Prilocaine hydrochloride], 0%.
